This note sets out measurements from US11434246B2, “EP4 antagonists” (Eisai R&D Management Co., Ltd., priority 2015, dated 2022).

EP4, sequence (P35408 whole entry): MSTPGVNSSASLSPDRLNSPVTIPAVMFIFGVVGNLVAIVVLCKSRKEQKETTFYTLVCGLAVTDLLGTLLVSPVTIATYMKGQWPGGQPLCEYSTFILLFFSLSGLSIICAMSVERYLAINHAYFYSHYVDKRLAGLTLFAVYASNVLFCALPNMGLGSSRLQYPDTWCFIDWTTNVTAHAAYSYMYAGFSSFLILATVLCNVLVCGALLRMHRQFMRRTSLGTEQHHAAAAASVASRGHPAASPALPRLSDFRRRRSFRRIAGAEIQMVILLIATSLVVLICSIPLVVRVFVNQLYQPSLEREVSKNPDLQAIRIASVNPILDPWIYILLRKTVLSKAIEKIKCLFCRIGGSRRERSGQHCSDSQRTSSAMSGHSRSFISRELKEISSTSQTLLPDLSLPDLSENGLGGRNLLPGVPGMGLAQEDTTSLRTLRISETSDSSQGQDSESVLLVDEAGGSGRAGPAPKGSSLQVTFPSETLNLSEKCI

In this assay the target is EP4 (Homo sapiens, UniProt P35408). Nature of the assay: EP4 Antagonism by CRE-PLAP Reporter Assay (SE302 cells, PGE2-stimulated). Type of assay: cell-based. Set-up: HEK293 cells express endogenous EP4; endogenous in cells; host or cells: SE302 (HEK293 clone with CRE-PLAP reporter). Conditions: SE302 (HEK293) cells, 3 ng/mL PGE2, overnight; single or multiple assay average values. The text has this:
PGE2 and [^3H]-labelled PGE2 were purchased from Cayman Chemical (Ann Arbor, Mich.) and Perkin Elmer (Waltham, Mass.), respectively. Mouse breast 4T1 cells (CRL-2539) were obtained from American Tissue Culture Collection. SE302 cell line is a clone of the HEK293 cells containing cAMP response element (CRE) promoter that when activated drives secretion of placental-like alkaline phosphatase (PLAP). HEK293 cells express endogenous EP4 and show induction of PLAP in response to PGE2 and EP4 agonists, but not EP1, 2 or 3 agonists (Chen Q, Muramoto K, Masaaki N, Ding Y, Yang H, Mackey M, Li W, Inoue Y, Ackermann K, Shrota H, Matsumoto I, Spyvee M, Schiller S, Sumida T, Gusovsky F, and Lamphier M. A novel antagonist of the prostaglandin E2 EP4 receptor inhibits Th1 differentiation and Th17 expansion and is orally active in arthritis models. British J Pharmacol, 2010, 160: 292-310). BalB/C female mice at 7-8 week age were purchased from Jackson Laboratory (Bar Harbor, Me.). Mice were maintained under specific pathogen-free conditions.
EP4 Antagonism by CRE-PLAP Reporter Assay: SE302 cells were maintained in DMEM/F12 (50:50) (MediaTech) supplemented with 10% FBS (Tissue Culture Biologicals) plus penicillin/streptomycin. When used for assays, cells were plated in a 96-well plate at 2×10^4 cells/100 μL/well in serum-free assay medium (DMEM/F12 supplemented with 0.1% BSA plus penicillin/streptomycin) and incubated for 4-6 h. Cells were then stimulated with 3 ng/mL of PGE2 in the presence or absence of various concentrations of test compound overnight, and PLAP activity was measured by mixing 15 μL of culture supernatants with 75 μL of Lumi-phos (Lumigen, Inc.) and 60 μL of assay buffer containing 8 mmol/L MgSO4 in 0.1 mol/L carbonate-bicarbonate buffer pH11 in a new 96-well black plate and incubated for 2 h at room temperature. The intensity of luminescence, which reflected the PLAP activity in the supernatant, was quantified with an Envision 2101 Multilabel Reader. Values obtained from DMSO treated samples in the presence of PGE2 were defined as 100% of control, whereas values obtained from DMSO treated samples in the absence of PGE2 were defined as 0% of control. % of control for compound treated samples was calculated as follows: (actual reading−0% of control)/(100% of control−0% of control)×100. IC50 value for each individual experiment was calculated using GraphPad Prism 6.02 (Lake Forest, Calif.) with % of control values.
Compounds of the present invention were assayed according to the methods as described above, and IC50 values, which may be single assay values or multiple assay average values, are summarized in Table 1. Compounds marked “ABS” show absolute stereochemistry.
Compound `C[C@H](NC(=O)c1c(C(F)(F)F)nn2c1N(Cc1ccc(CCCF)cc1)CC2)c1ccc(C(=O)O)cc1` [Compound 97, (S)-4-(1-(1-(4-(3-fluoropropyl)benzyl)-6-(trifluoromethyl)-2,3-dihydro-1H-imidazo[1,2-b]pyrazole-7-carboxamido)ethyl)benzoic Acid] showed an IC50 of 21.8 nM.

With `C[C@H](NC(=O)c1c(C(F)(F)F)nn2c1N(Cc1cccc(I)c1)CC2)c1ccc(C(=O)O)cc1` [Compound 69, (S)-4-(1-(1-(3-iodobenzyl)-6-(trifluoromethyl)-2,3-dihydro-1H-imidazo[1,2-b]pyrazole-7-carboxamido)ethyl)benzoic acid], the half-maximal inhibitory concentration (IC50) turned out to be 0.7 nM. Compound `C[C@H](NC(=O)c1c(C(F)(F)F)nn2c1N(c1cccc(Cl)c1)CC2)c1ccc(C(=O)O)cc1` [Compound 49, (S)-4-(1-(1-(3-chlorophenyl)-6-(trifluoromethyl)-2,3-dihydro-1H-imidazo[1,2-b]pyrazole-7-carboxamido)ethyl)benzoic Acid] came in with a 50% inhibitory concentration (IC50) of 100 nM. In the case of `Cc1nn2c(c1C(=O)NC1(c3ccc(C(=O)O)cc3)CC1)N([C@H](C)c1ccc(C(F)(F)F)cc1)CC2` [Compound 34, (R)-4-(1-(6-methyl-1-(1-(4-(trifluoromethyl)phenyl)ethyl)-2,3-dihydro-1H-imidazo[1,2-b]pyrazole-7-carboxamido)cyclopropyl)benzoic Acid], half-maximal inhibition (IC50) required 9.19 nM. With `C[C@H](NC(=O)c1c(C(F)(F)F)nn2c1N(Cc1ccc(C(F)(F)F)cc1)CCC2)c1ccc(C(=O)O)cc1` [Compound 45, (S)-4-(1-(2-(trifluoromethyl)-4-(4-(trifluoromethyl)benzyl)-4,5,6,7-tetrahydropyrazolo[1,5-a]pyrimidine-3-carboxamido)ethyl)benzoic Acid] the figure was 1.15 nM; with `C[C@H](NC(=O)c1c(C(F)(F)F)nn2c1N(Cc1cc(Br)cc(C(F)(F)F)c1)CC2)c1ccc(C(=O)O)cc1` [Compound 85, (S)-4-(1-(1-(3-bromo-5-(trifluoromethyl)benzyl)-6-(trifluoromethyl)-2,3-dihydro-1H-imidazo[1,2-b]pyrazole-7-carboxamido)ethyl)benzoic Acid], 0.12 nM; with `C[C@H](NC(=O)c1c(C(F)(F)F)nn2c1N(Cc1cccc(C(F)(F)F)c1)CC2)c1ccc(C(=O)NS(=O)(=O)c2ccc([N+](=O)[O-])cc2)cc1` [Compound 71, (S)—N-(1-(4-(((4-nitrophenyl)sulfonyl)carbamoyl)phenyl)ethyl)-6-(trifluoromethyl)-1-(3-(trifluoromethyl)benzyl)-2,3-dihydro-1H-imidazo[1,2-b]pyrazole-7-carboxamide], 5.87 nM. With `CSc1cc(CN2CCn3nc(C(F)(F)F)c(C(=O)N[C@@H](C)c4ccc(C(=O)O)cc4)c32)cc(C(F)(F)F)c1` [Compound 62, (S)-4-(1-(1-(3-(methylthio)-5-(trifluoromethyl)benzyl)-6-(trifluoromethyl)-2,3-dihydro-1H-imidazo[1,2-b]pyrazole-7-carboxamido)ethyl)benzoic Acid] the figure was 0.57 nM. For `O=C(O)c1ccc(C2(NC(=O)c3c(C(F)(F)F)nn4c3N(Cc3ccc(C(F)(F)F)cc3)CC4)CC2)cc1` [Compound 29, 4-(1-(6-(trifluoromethyl)-1-(4-(trifluoromethyl)benzyl)-2,3-dihydro-1H-imidazo[1,2-b]pyrazole-7-carboxamido)cyclopropyl)benzoic Acid], the IC50 was 2.19 nM. With `C[C@H](NC(=O)c1c(C(F)(F)F)nn2c1N(Cc1cccc(C(F)(F)F)c1)CC2)c1ccc(-c2nn[nH]n2)cc1` [Compound 36, (S)—N-(1-(4-(2H-tetrazol-5-yl)phenyl)ethyl)-6-(trifluoromethyl)-1-(3-(trifluoromethyl)benzyl)-2,3-dihydro-1H-imidazo[1,2-b]pyrazole-7-carboxamide] the figure was 0.31 nM. The result for `C[C@H](NC(=O)c1c(C(F)(F)F)nn2c1N(Cc1ccc(C(F)(F)F)cc1)CC2)c1ccc(-c2ccoc2)cc1` [Compound 40, (S)—N-(1-(4-(furan-3-yl)phenyl)ethyl)-6-(trifluoromethyl)-1-(4-(trifluoromethyl)benzyl)-2,3-dihydro-1H-imidazo[1,2-b]pyrazole-7-carboxamide] reads 150 nM; that for `C[C@H](NC(=O)c1c(C(F)(F)F)nn2c1N(Cc1cccc(OC(F)(F)F)c1)CC2)c1ccc(C(=O)NS(=O)(=O)c2ccccc2)cc1` [Compound 54, (S)—N-(1-(4-((phenylsulfonyl)carbamoyl)phenyl)ethyl)-1-(3-(trifluoromethoxy)benzyl)-6-(trifluoromethyl)-2,3-dihydro-1H-imidazo[1,2-b]pyrazole-7-carboxamide], 21.6 nM. Turning to `C[C@H](NC(=O)c1c(C(F)(F)F)nn2c1N(Cc1ccccc1)CC2)c1ccc(C(=O)O)cc1` [Compound 70, (S)-4-(1-(1-benzyl-6-(trifluoromethyl)-2,3-dihydro-1H-imidazo[1,2-b]pyrazole-7-carboxamido)ethyl)benzoic acid], it took 0.84 nM to reach half-maximal inhibition (IC50).

Turning to `C[C@H](NC(=O)c1c(C(F)(F)F)nn2c1N(Cc1ccc(C(F)(F)F)cc1)CC2)c1ccc(C(=O)O)cc1` [Compound 3, (S)-4-(1-(6-(trifluoromethyl)-1-(4-(trifluoromethyl)benzyl)-2,3-dihydro-1H-imidazo[1,2-b]pyrazole-7-carboxamido)ethyl)benzoic acid], the IC50 worked out at 3.19 nM. On to `C[C@H](NC(=O)c1c(C(F)(F)F)nn2c1N(Cc1ccc(O)cc1)CC2)c1ccc(C(=O)O)cc1` [Compound 86, (S)-4-(1-(1-(4-hydroxybenzyl)-6-(trifluoromethyl)-2,3-dihydro-1H-imidazo[1,2-b]pyrazole-7-carboxamido)ethyl)benzoic Acid], for which the IC50 came to 1.48 nM. The result for `C[C@H](NC(=O)c1c(C(F)(F)F)nn2c1N(CC1CCC(CF)CC1)CC2)c1ccc(C(=O)O)cc1` (stereo partly drawn) [Compound 78, (S)-4-(1-(1-((4-(fluoromethyl)cyclohexyl)methyl)-6-(trifluoromethyl)-2,3-dihydro-1H-imidazo[1,2-b]pyrazole-7-carboxamido)ethyl)benzoic acid] reads 63 nM; that for `COC(=O)c1ccc([C@H](C)NC(=O)c2c(C(F)(F)F)nn3c2N(C(=O)c2ccccc2F)CC3)cc1` [Compound 102], 39 nM.

`COc1cccc(CN2CCn3nc(C(F)(F)F)c(C(=O)N[C@@H](C)c4ccc(C(=O)O)cc4)c32)c1` [Compound 9, (S)-4-(1-(1-(3-methoxybenzyl)-6-(trifluoromethyl)-2,3-dihydro-1H-imidazo[1,2-b]pyrazole-7-carboxamido)ethyl)benzoic Acid] yielded a half-inhibitory concentration (IC50) of 1.41 nM.

Consider `C[C@H](NC(=O)c1c(C(F)(F)F)nn2c1N(Cc1ccc(C(F)(F)F)cc1)CC2)c1ccc(C(=O)O)c(F)c1` [Compound 21, (S)-2-fluoro-4-(1-(6-(trifluoromethyl)-1-(4-(trifluoromethyl)benzyl)-2,3-dihydro-1H-imidazo[1,2-b]pyrazole-7-carboxamido)ethyl)benzoic Acid], for which the IC50 is 2.85 nM. With `C[C@H](NC(=O)c1c(C(F)(F)F)nn2c1N(Cc1cccc(C(F)(F)F)c1)CC2)c1ccc(CC(=O)O)cc1` [Compound 26, (S)-2-(4-(1-(6-(trifluoromethyl)-1-(3-(trifluoromethyl)benzyl)-2,3-dihydro-1H-imidazo[1,2-b]pyrazole-7-carboxamido)ethyl)phenyl)acetic Acid] the figure was 3.54 nM; with `C[C@H](NC(=O)c1c(C(F)F)nn2c1N(Cc1cccc(C(F)(F)F)c1)CC2)c1ccc(C(=O)O)cc1` [Compound 94, (S)-4-(1-(6-(Difluoromethyl)-1-(3-(trifluoromethyl)benzyl)-2,3-dihydro-1H-imidazo[1,2-b]pyrazole-7-carboxamido)ethyl)benzoic Acid], 0.343 nM. `C=Cc1nn2c(c1C(=O)N[C@@H](C)c1ccc(C(=O)O)cc1)N(Cc1cccc(C(F)(F)F)c1)CC2` [Compound 92, (S)-4-(1-(1-(3-(Trifluoromethyl)benzyl)-6-vinyl-2,3-dihydro-1H-imidazo[1,2-b]pyrazole-7-carboxamido)ethyl)benzoic Acid] registered an IC50 of 5.43 nM.

As usually defined, the IC50 is the concentration needed to halve the response being measured. Read a high IC50 as weaker potency in that assay.
